Measured values published in US9556190B2, “Piperidinyloxy lactone orexin receptor antagonists” (MERCK SHARP & DOHME CORP., priority 2013, dated 2017).

Legend:
[1] = target: human orexin-2 receptor (Homo sapiens (Human), UniProt O43614); assay: FLIPR Ca2+ Flux Assay, CHO cells expressing orexin-2 receptor; assay type: cell-based; conditions: 70 pM Ala-6,12 orexin-A agonist, read-out: hOX2R FLIPR IC50
Description: The utility of the compounds in accordance with the present invention as orexin receptor OX1R and/or OX2R antagonists may be readily determined without undue experimentation by methodology well known in the art, including the “FLIPR Ca^2+ Flux Assay” (Okumura et al., Biochem. Biophys. Res. Comm. 280:976-981, 2001). In a typical experiment the OX1 and OX2 receptor antagonistic activity of the compounds of the present invention was determined in accordance with the following experimental method. For intracellular calcium measurements, Chinese hamster ovary (CHO) cells expressing the rat orexin-1 receptor or the human orexin-2 receptor, are grown in Iscove's modified DMEM containing 2 mM L-glutamine, […], 1% hypoxanthine-thymidine supplement, 100 U/ml penicillin, 100 μg/ml streptomycin and 10% heat-inactivated fetal calf serum (FCS). The cells are seeded at 20,000 cells/well into Becton-Dickinson black 384-well clear bottom sterile plates coated with poly-D-lysine. All reagents were from GIBCO-Invitrogen Corp. The seeded plates are incubated overnight at 37° C. and 5% CO2. Ala-6,12 human orexin-A as the agonist is prepared as a 1 mM stock solution in 1% bovine serum albumin (BSA) and diluted in assay buffer (HBSS containing 20 mM HEPES, 0.1% BSA and 2.5 mM probenecid, pH7.4) for use in the assay at a final concentration of 70 pM. Test compounds are prepared as 10 mM stock solution in DMSO, then diluted in 384-well plates, first in DMSO, then assay buffer. On the day of the assay, cells are washed 3 times with 100 μl assay buffer and then incubated for 60 min (37° C., 5% CO2) in 60 μl assay buffer containing 1 μM Fluo-4AM ester, 0.02% pluronic acid, and 1% BSA. The dye loading solution is then aspirated and cells are washed 3 times with 100 μl assay buffer. 30 μl of that same buffer is left in each well. Within the Fluorescent Imaging Plate Reader (FLIPR, Molecular Devices), test compounds are added to the plate in a volume of 25 μl, incubated for 5 min and finally 25 μl of agonist is added. Fluorescence is measured for each well at 1 second intervals for 5 minutes and the height of each fluorescence peak is compared to the height of the fluorescence peak induced by 70 pM Ala-6,12 orexin-A with buffer in place of antagonist. For each antagonist, IC50 value (the concentration of compound needed to inhibit 50% of the agonist response) is determined. Alternatively, compound potency can be assessed by a radioligand binding assay (described in Bergman et. al. Bioorg. Med. Chem. Lett. 2008, 18, 1425-1430) in which the inhibition constant (Ki) is determined in membranes prepared from CHO cells expressing either the OX1 or OX2 receptor. The intrinsic orexin receptor antagonist activity of a compound which may be used in the present invention may be determined by these assays.

[2] = target: hOX1R (Homo sapiens, UniProt O43613); assay: FLIPR Ca2+ Flux Assay, CHO cells expressing orexin-1 receptor; assay type: cell-based; conditions: 70 pM Ala-6,12 orexin-A agonist

human orexin-2 receptor, sequence (O43614 whole entry): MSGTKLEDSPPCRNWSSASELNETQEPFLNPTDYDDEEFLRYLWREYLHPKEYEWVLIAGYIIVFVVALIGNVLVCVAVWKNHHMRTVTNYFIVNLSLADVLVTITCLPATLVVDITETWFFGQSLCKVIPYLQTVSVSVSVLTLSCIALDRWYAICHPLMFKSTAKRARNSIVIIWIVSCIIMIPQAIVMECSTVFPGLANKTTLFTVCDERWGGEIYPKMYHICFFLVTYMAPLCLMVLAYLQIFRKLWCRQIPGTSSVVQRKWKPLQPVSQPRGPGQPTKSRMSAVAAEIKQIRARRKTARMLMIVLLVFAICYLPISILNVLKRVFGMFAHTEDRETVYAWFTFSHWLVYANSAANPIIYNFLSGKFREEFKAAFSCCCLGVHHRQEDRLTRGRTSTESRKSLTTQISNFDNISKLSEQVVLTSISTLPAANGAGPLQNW

Row | SMILES | IC50 [1] [nM] | IC50 [2] [µM]
1 | C[C@@H]1CC[C@@H](Oc2nccc3c2C(=O)OC3(C)C)CN1C(=O)c1ccccc1-n1ncnn1 [Example 21, 1,1-Dimethyl-4-{[(3R,6R)-6-methyl-1-{[2-(2H-tetrazol-2-yl)phenyl]carbonyl}piperidin-3-yl]oxy}furo[3,4-c]pyridin-3(1H)-one] | 109 | 10
2 | C[C@@H]1CC[C@@H](Oc2nccc3c2C(=O)OC3(C)C)CN1C(=O)c1ccc(F)cc1-c1ncccn1 [Example 23, 4-({(3R,6R)-1-[(4-fluoro-2-pyrimidin-2-ylphenyl)carbonyl]-6-methylpiperidin-3-yl}oxy)-1,1-dimethylfuro[3,4-c]pyridin-3(1H)-one] | 420 | 10
3 | C[C@@H]1CC[C@@H](Oc2nccc3c2C(=O)OC3(C)C)CN1C(=O)c1c(F)cccc1-c1ncccn1 [Example 26, 4-({(3R,6R)-1-[(2-fluoro-6-pyrimidin-2-ylphenyl)carbonyl]-6-methylpiperidin-3-yl}oxy)-1,1-dimethylfuro[3,4-c]pyridin-3(1H)-one] | 109 | 10
4 | COc1ccc(C(=O)N2C[C@H](Oc3nccc4c3C(=O)OC4(C)C)CC[C@H]2C)c(-n2nccn2)n1 [Example 12, 4-{[(3R,6R)-1-{[6-methoxy-2-(2H-1,2,3-triazol-2-yl)pyridin-3-yl]carbonyl}-6-methylpiperidin-3-yl]oxy}-1,1-dimethylfuro[3,4-c]pyridin-3(1H)-one] | 195 | 10
5 | C[C@@H]1CC[C@@H](Oc2nccc3c2COC3=O)CN1C(=O)c1ccccc1-n1ncnn1 [Example 34, 4-{[(3R,6R)-6-methyl-1-{[2-(2H-tetrazol-2-yl)phenyl]carbonyl}-piperidin-3-yl]oxy}-furo[3,4-c]pyridin-1(3H)-one] | 30 | 10
6 | C[C@@H]1CC[C@@H](N(C)c2nccc3c2C(=O)OC3(C)C)CN1C(=O)c1ccccc1-n1ncnn1 [Example 45, 1,1-Dimethyl-4-{methyl[(3R,6R)-6-methyl-1-{[2-(2H-tetrazol-2-yl)phenyl]carbonyl}piperidin-3-yl]amino}furo[3,4-c]pyridin-3(1H)-one] | 127 | 9.33
7 | Cc1nc(-c2cc(F)ccc2C(=O)N2C[C@H](Oc3nccc4c3C(=O)OC4(C)C)CC[C@H]2C)no1 [Example 15, 4-{[(3R,6R)-1-{[4-fluoro-2-(5-methyl-1,2,4-oxadiazol-3-yl)phenyl]carbonyl}-6-methylpiperidin-3-yl]oxy}-1,1-dimethylfuro[3,4-c]pyridin-3(1H)-one] | 232 | 10
8 | C[C@@H]1CC[C@@H](Nc2nccc3c2C(=O)OC3(C)C)CN1C(=O)c1ccccc1-n1ncnn1 [Example 41, 1,1-Dimethyl-4-{[(3R,6R)-6-methyl-1-{[2-(2H-tetrazol-2-yl)phenyl]carbonyl}piperidin-3-yl]amino}furo[3,4-c]pyridin-3(1H)-one] | 15 | 10
9 | C[C@@H]1CC[C@@H](Oc2nccc3c2COC3=O)CN1C(=O)c1ccccc1CS(C)(=O)=O [Example 33, 4-{[(3R,6R)-6-methyl-1-({2-[(methyl-sulfonyl)methyl]-phenyl}carbonyl)-piperidin-3-yl]oxy}furo[3,4-c]pyridin-1(3H)-one] | 20 | ≥ 10
10 | C[C@@H]1CC[C@@H](Nc2nccc3c2C(=O)OC3(C)C)CN1C(=O)c1ccccc1-n1nccn1 [Example 39, 1,1-Dimethyl-4-{[(3R,6R)-6-methyl-1-{[2-(2H-1,2,3-triazol-2-yl)phenyl]carbonyl}piperidin-3-yl]amino}furo[3,4-c]pyridin-3(1H)-one] | 49 | 5.88
11 | C[C@@H]1CC[C@@H](Oc2nccc3c2C(=O)OC3(C)C)CN1C(=O)c1cc(F)ccc1-n1nccn1 [Example 4, 4-{[(3R,6R)-1-{[5-fluoro-2-(2H-1,2,3-triazol-2-yl)phenyl]carbonyl}-6-methylpiperidin-3-yl]oxy}-1,1-dimethylfuro[3,4-c]pyridin-3(1H)-one] | 23 | 10
12 | C[C@@H]1CC[C@@H](Oc2nccc3c2C(=O)OC3(C)C)CN1C(=O)c1cccc(F)c1-c1ncccn1 [Example 27, 4-({(3R,6R)-1-[(3-fluoro-2-pyrimidin-2-ylphenyl)carbonyl]-6-methylpiperidin-3-yl}oxy)-1,1-dimethylfuro[3,4-c]pyridin-3(1H)-one] | 139 | 10
13 | C[C@@H]1CC[C@@H](Nc2nccc3c2C(=O)OC3)CN1C(=O)c1ccccc1-n1nccn1 [Example 40, 4-{[(3R,6R)-6-Methyl-1-{[2-(2H-1,2,3-triazol-2-yl)phenyl]carbonyl}piperidin-3-yl]amino}furo[3,4-c]pyridin-3(1H)-one] | 136 | 10
14 | C[C@@H]1CC[C@@H](Oc2nccc3c2C(=O)OC3(C)C)CN1C(=O)c1ccc(F)cc1-n1nccn1 [Example 10, 4-{[(3R,6R)-1-{[4-fluoro-2-(2H-1,2,3-triazol-2-yl)phenyl]carbonyl}-6-methylpiperidin-3-yl]oxy}-1,1-dimethylfuro[3,4-c]pyridin-3(1H)-one] | 59 | 10
15 | C[C@@H]1CC[C@@H](Oc2cccc3c2C(=O)OC3(C)C)CN1C(=O)c1ccccc1-n1nccn1 [Example 38, 3,3-Dimethyl-7-{[(3R,6R)-6-methyl-1-{[2-(2H-1,2,3-triazol-2-yl)phenyl]carbonyl}piperidin-3-yl]oxy}-2-benzofuran-1(3H)-one] | 169 | 10
16 | C[C@@H]1CC[C@@H](Oc2nccc3c2C(=O)OC3(C)C)CN1C(=O)c1cc(F)ccc1-c1ncccn1 [Example 24, 4-({(3R,6R)-1-[(5-fluoro-2-pyrimidin-2-ylphenyl)carbonyl]-6-methylpiperidin-3-yl}oxy)-1,1-dimethylfuro[3,4-c]pyridin-3(1H)-one] | 72 | 10
17 | Cc1nc(-c2cccc(F)c2C(=O)N2C[C@H](Oc3nccc4c3C(=O)OC4(C)C)CC[C@H]2C)no1 [Example 13, 4-{[(3R,6R)-1-{[2-fluoro-6-(5-methyl-1,2,4-oxadiazol-3-yl)phenyl]carbonyl}-6-methylpiperidin-3-yl]oxy}-1,1-dimethylfuro[3,4-c]pyridin-3(1H)-one] | 65 | ≥ 10
18 | C[C@@H]1CC[C@@H](Nc2nccc3c2C(=O)OC3(C)C)CN1C(=O)c1ccccc1-c1ncccn1 [Example 42, 1,1-dimethyl-4-({(3R,6R)-6-methyl-1-[(2-pyrimidin-2-ylphenyl)carbonyl]-piperidin-3-yl}amino)furo[3,4-c]pyridin-3(1H)-one] | 26 | 2.86
19 | C[C@@H]1CC[C@@H](Oc2nccc3c2COC3=O)CN1C(=O)c1cscc1-c1ncccn1 [Example 35, 4-({(3R,6R)-6-methyl-1-[(4-pyrimidin-2-ylthiophen-3-yl)carbonyl]piperidin-3-yl}oxy)furo[3,4-c]pyridin-1(3H)-one] | 20 | 10
20 | C[C@@H]1CC[C@@H](Oc2nccc3c2COC3=O)CN1C(=O)c1ccccc1C1(C#N)CC1 [Example 31, 1-[2-({(2R,5R)-2-methyl-5-[(1-oxo-1,3-dihydrofuro[3,4-c]pyridin-4-yl)oxy]-piperidin-1-yl}-carbonyl)-phenyl]cyclo-propane-carbonitrile] | 12 | 1.78
21 | C[C@@H]1CC[C@@H](Nc2nccc3c2C(=O)OC3(C)C)CN1C(=O)c1ccsc1-n1nccn1 [Example 43, 1,1-dimethyl-4-{[(3R,6R)-6-methyl-1-{[2-(2H-1,2,3-triazol-2-yl)thiophen-3-yl]-carbonyl}piperidin-3-yl]amino}-furo[3,4-c]pyridin-3(1H)-one] | 19 | 10
22 | C[C@@H]1CC[C@@H](Oc2nccc3c2COC3=O)CN1C(=O)c1ccsc1-c1ncccn1 [Example 37, 4-({(3R,6R)-6-methyl-1-[(2-pyrimidin-2-ylthiophen-3-yl)carbonyl]piperidin-3-yl}oxy)furo[3,4-c]pyridin-1(3H)-one] | 27 | 6.16
